Measurements published in ChEMBL document CHEMBL5725298 (2017).

Test: Anti-HIV Cytoprotection Assay: The in vitro antiviral activity profile for CMX157 was evaluated for cell-type effects and HIV strain effects.

Compound | EC50
C[C@H](Cn1cnc2c(N)ncnc21)OCP(=O)(O)OCCCOCC(=O)O | > 10 µM
C[C@H](Cn1cnc2c(N)ncnc21)OCP(=O)(O)OCCCOCCCC(=O)O | > 10 µM
C[C@H](Cn1cnc2c(N)ncnc21)OCP(=O)(O)OCCCO | > 10 µM
CCCCCCCCCCCCCCCCOCCCOP(=O)(O)CO[C@H](C)Cn1cnc2c(N)ncnc21 [TENOFOVIR EXALIDEX] | < 0.03 µM
